Drawing on article PMC4555179, “Molecular insights into Zeaxanthin-dependent quenching in higher plants” (Scientific Reports, 2015), this text covers Z and V for 3 compounds.

Each structure is given as a SMILES string.

The target of test [1] is T1, CP24 (CP24-his tag) (Arabidopsis thaliana, UniProt Q9LMQ2).
T1 construct: gene LHCB6; mature thylakoid protein (transit peptide removed in vivo), C-terminal His tag kept; purified from plant thylakoids by sucrose gradient (Band 2) and Ni column; monomer
T1 sequence (Q9LMQ2 50-258): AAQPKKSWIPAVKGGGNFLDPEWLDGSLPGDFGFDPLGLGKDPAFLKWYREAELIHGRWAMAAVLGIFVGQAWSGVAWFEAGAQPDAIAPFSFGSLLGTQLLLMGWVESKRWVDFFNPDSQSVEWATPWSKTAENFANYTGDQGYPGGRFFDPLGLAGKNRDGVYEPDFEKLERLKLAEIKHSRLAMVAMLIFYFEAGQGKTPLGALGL
Briefly: co-purified pigment, HPLC and absorption fit of acetone extract. It is filed as binding. The following applies: complex from light-stressed plants (30 min high light), pH 5.5, 4 °C; endogenous pigment; peripheral, not in internal L1/L2 sites.

For test [2], the target named is T1, CP24 (CP24-his tag). Described as above. It is filed as binding. To be noted: complex from control plants; endogenous pigment.
Source text: co-purified pigment, HPLC and absorption fit of acetone extract on CP24 (CP24-his tag)

With `CC1=C(/C=C/C(C)=C/C=C/C(C)=C/C=C/C=C(C)/C=C/C=C(C)/C=C/C2=C(C)C[C@@H](O)CC2(C)C)C(C)(C)C[C@H](O)C1` [Z, zeaxanthin], the Z in test [1] is given as 0.20 ± 0.00 mol per monomer (normalised to 10 Chl).

For the compound `CC(/C=C/C=C(C)/C=C/[C@@]12O[C@]1(C)C[C@@H](O)CC2(C)C)=C\C=C\C=C(C)\C=C\C=C(C)\C=C\[C@@]12O[C@]1(C)C[C@@H](O)CC2(C)C` [V, violaxanthin], the V in test [2] is 0.89 ± 0.02 mol per monomer (normalised to 10 Chl).

As to `CC1=C[C@H](O)CC(C)(C)[C@H]1/C=C/C(C)=C/C=C/C(C)=C/C=C/C=C(C)/C=C/C=C(C)/C=C/C1=C(C)C[C@@H](O)CC1(C)C` [L, lutein], the V in test [2] is on record as 0.89 ± 0.02 mol per monomer (normalised to 10 Chl).
